Data published in patent publication US11021521B2, “Pore-modified gram-negative bacteria and uses thereof” (priority 2015, dated 2021).
≈ marks a conversion by molar mass, not a printed value. Read-outs that look alike come from different tables or passages of the source.

Assays:
Test in all cases: microbe, parasite or virus in culture
Assay type in all cases: cell-based
[1] = test system: A. baumannii AbΔ3-ARA-EcPore (efflux-deficient, hyperporinated); conditions: AbΔ3-ARA-EcPore, at least three independent measurements
[2] = test system: B. thailandensis Bt-RHA-BtPore (hyperporinated)
[3] = test system: B. thailandensis BtΔ2-RHA (efflux-deficient)
[4] = test system: B. thailandensis BtΔ2-RHA-BtPore (efflux-deficient, hyperporinated)
[5] = test system: B. thailandensis Bt-RHA (wild type, empty cassette)
[6] = test system: A. baumannii Ab-ARA (wild type, empty cassette); conditions: at least three independent measurements
[7] = test system: A. baumannii Ab-ARA-EcPore (hyperporinated); conditions: Ab-ARA-EcPore, at least three independent measurements
[8] = test system: P. aeruginosa PAO1-LAC-EcPore (hyperporinated); conditions: Pseudomonas aeruginosa; PAO1-LAC-EcPore; at least three independent measurements; read-out: MIC
[9] = test system: A. baumannii AbΔ3-ARA (efflux-deficient); conditions: AbΔ3-ARA, at least three independent measurements
[10] = test system: P. aeruginosa PAO1-LAC (wild type, empty cassette); conditions: Pseudomonas aeruginosa, at least three independent measurements, read-out: MIC
[11] = test system: B. cepacia Bc-RHA-BtPore (hyperporinated); conditions: Bc-RHA-BtPore
[12] = test system: B. cepacia Bc-RHA (wild type, empty cassette)
[13] = test system: P. aeruginosa PaΔ3-LAC (efflux-deficient); conditions: Pseudomonas aeruginosa, at least three independent measurements, read-out: MIC
[14] = test system: P. aeruginosa PaΔ3-LAC-EcPore (efflux-deficient, hyperporinated); conditions: Pseudomonas aeruginosa; PaΔ3-LAC-EcPore; at least three independent measurements; read-out: MIC
[15] = Acinetobacter baumannii, read-out: MIC
[16] = Burkholderia cepacia, read-out: MIC

Compound | MIC [1, 15] [µg/mL] | MIC ([2]; Burkholderia thailandensis) [µg/mL] | MIC ([3]; Burkholderia thailandensis) [µg/mL] | MIC ([4]; Burkholderia thailandensis) [µg/mL] | MIC ([5]; Burkholderia thailandensis) [µg/mL] | MIC [6, 15] [µg/mL] | MIC [7, 15] [µg/mL] | MIC [8] [µg/mL] | MIC [9, 15] [µg/mL] | MIC [11, 16] [µg/mL] | MIC [12, 16] [µg/mL] | MIC [13] [µg/mL] | MIC [14] [µg/mL] | other results
NCC[C@H](O)C(=O)N[C@@H]1C[C@H](N)[C@@H](O[C@H]2O[C@H](CN)[C@@H](O)[C@H](O)[C@H]2O)[C@H](O)[C@H]1O[C@H]1O[C@H](CO)[C@@H](O)[C@H](N)[C@H]1O [Amikacin] | 4 (≈ 6.83 µM) | 256 (≈ 437 µM) | 4 (≈ 6.83 µM) | 2 (≈ 3.42 µM) | 256 (≈ 437 µM) | 8 (≈ 13.7 µM) | 4 (≈ 6.83 µM) | 2 (≈ 3.42 µM) | 4 (≈ 6.83 µM) | 8 (≈ 13.7 µM) | 128 (≈ 219 µM) | – | – | MIC [10]: 2 µg/mL (≈ 3.42 µM)
CC1(C)S[C@@H]2[C@H](NC(=O)[C@H](N)c3ccccc3)C(=O)N2[C@H]1C(=O)O [Ampicillin] | – | – | – | – | – | 2050 (≈ 5860 µM) | – | 16 (≈ 45.8 µM) | – | 512 (≈ 1470 µM) | – | – | – | –
CC[C@H]1OC(=O)[C@H](C)[C@@H](O[C@H]2C[C@@](C)(OC)[C@@H](O)[C@H](C)O2)[C@H](C)[C@@H](O[C@@H]2O[C@H](C)C[C@H](N(C)C)[C@H]2O)[C@](C)(O)C[C@@H](C)CN(C)[C@H](C)[C@@H](O)[C@]1(C)O [Azithromycin] | 0.08 (≈ 0.107 µM) | 64 (≈ 85.4 µM) | 1 (≈ 1.34 µM) | 0.032 (≈ 0.0427 µM) | 128 (≈ 171 µM) | 0.31 (≈ 0.414 µM) | 0.04 (≈ 0.0534 µM) | 4 (≈ 5.34 µM) | 0.31 (≈ 0.414 µM) | 1 to 2 (≈ 1.34 to 2.67 µM) | 64 (≈ 85.4 µM) | 4 (≈ 5.34 µM) | 0.063 (≈ 0.0841 µM) | –
CC1(C)S[C@@H]2[C@H](NC(=O)C(C(=O)O)c3ccccc3)C(=O)N2[C@H]1C(=O)O (stereo partly shown) [Carbenicillin] | 64 (≈ 169 µM) | 256 (≈ 677 µM) | 256 (≈ 677 µM) | 8 (≈ 21.1 µM) | – | 2050 (≈ 5410 µM) | 32 (≈ 84.6 µM) | 2 (≈ 5.29 µM) | 2050 (≈ 5410 µM) | 128 (≈ 338 µM) | > 1020 | 1 (≈ 2.64 µM) | 0.125 (≈ 0.33 µM) | MIC [5]: 256 to 512 µg/mL
O=C(N[C@H](CO)[C@H](O)c1ccc([N+](=O)[O-])cc1)C(Cl)Cl [Chloramphenicol] | 4 (≈ 12.4 µM) | 8 (≈ 24.8 µM) | 4 (≈ 12.4 µM) | 1 (≈ 3.09 µM) | 8 (≈ 24.8 µM) | 32 (≈ 99 µM) | 8 (≈ 24.8 µM) | 2 (≈ 6.19 µM) | 8 (≈ 24.8 µM) | 4 (≈ 12.4 µM) | 16 (≈ 49.5 µM) | 1 (≈ 3.09 µM) | 0.125 (≈ 0.387 µM) | –
O=C(O)c1cn(C2CC2)c2cc(N3CCNCC3)c(F)cc2c1=O [Ciprofloxacin] | – | – | – | – | – | – | – | – | – | – | 1 (≈ 3.02 µM) | – | – | –
Cc1onc(-c2ccccc2Cl)c1C(=O)N[C@@H]1C(=O)N2[C@@H]1SC(C)(C)[C@@H]2C(=O)O [Cloxacillin] | 16 (≈ 36.7 µM) | – | 32 (≈ 73.4 µM) | 0.5 (≈ 1.15 µM) | 256 (≈ 587 µM) | 1020 (≈ 2350 µM) | 128 (≈ 294 µM) | 512 (≈ 1170 µM) | 128 (≈ 294 µM) | 4 (≈ 9.18 µM) | 256 (≈ 587 µM) | 128 (≈ 294 µM) | 8 (≈ 18.4 µM) | MIC [2]: 128 to 256 µg/mL
C[C@H]1c2cccc(O)c2C(=O)C2=C(O)[C@]3(O)C(=O)C(C(N)=O)=C(O)[C@@H](N(C)C)[C@@H]3[C@@H](O)[C@@H]21 [Doxycycline] | 0.0016 (≈ 0.0036 µM) | 1.5 (≈ 3.38 µM) | 0.02 (≈ 0.045 µM) | 0.01 (≈ 0.0225 µM) | 3 (≈ 6.75 µM) | 0.04 (≈ 0.09 µM) | 0.02 (≈ 0.045 µM) | – | 0.0016 (≈ 0.0036 µM) | 3 (≈ 6.75 µM) | 6 (≈ 13.5 µM) | – | – | –
CC[C@H]1OC(=O)[C@H](C)[C@@H](O[C@H]2C[C@@](C)(OC)[C@@H](O)[C@H](C)O2)[C@H](C)[C@@H](O[C@@H]2O[C@H](C)C[C@H](N(C)C)[C@H]2O)[C@](C)(O)C[C@@H](C)C(=O)[C@H](C)[C@@H](O)[C@]1(C)O [Erythromycin] | 0.08 (≈ 0.109 µM) | – | 1 (≈ 1.36 µM) | 0.5 (≈ 0.681 µM) | 512 (≈ 698 µM) | 5 (≈ 6.81 µM) | – | 2 (≈ 2.73 µM) | – | 8 to 16 (≈ 10.9 to 21.8 µM) | – | 16 (≈ 21.8 µM) | – | –
NC[C@H]1O[C@H](O[C@H]2[C@H](O)[C@@H](O[C@H]3O[C@H](CO)[C@@H](O)[C@H](N)[C@H]3O)[C@H](N)C[C@@H]2N)[C@H](O)[C@@H](O)[C@@H]1O [Kanamycin] | – | 64 (≈ 132 µM) | 4 (≈ 8.26 µM) | 2 (≈ 4.13 µM) | > 64 | – | – | – | – | 4 to 8 (≈ 8.26 to 16.5 µM) | 64 (≈ 132 µM) | – | – | –
C[C@H]1COc2c(N3CCN(C)CC3)c(F)cc3c(=O)c(C(=O)O)cn1c23 [Levofloxacin] | – | 1 (≈ 2.77 µM) | – | – | 2 (≈ 5.53 µM) | 0.125 (≈ 0.346 µM) | 0.125 (≈ 0.346 µM) | 0.063 (≈ 0.174 µM) | – | 0.06 (≈ 0.166 µM) | 2 (≈ 5.53 µM) | – | – | –
CCn1cc(C(=O)O)c(=O)c2ccc(C)nc21 [Nalidixic acid] | 0.75 (≈ 3.23 µM) | 24 (≈ 103 µM) | 12 (≈ 51.7 µM) | 1.5 (≈ 6.46 µM) | 48 (≈ 207 µM) | 3 (≈ 12.9 µM) | 1.5 (≈ 6.46 µM) | 32 (≈ 138 µM) | 1.5 (≈ 6.46 µM) | 3 (≈ 12.9 µM) | 24 (≈ 103 µM) | 8 (≈ 34.4 µM) | 2 (≈ 8.61 µM) | –
CO[C@H]1/C=C/O[C@@]2(C)Oc3c(C)c(O)c4c(O)c(c(/C=N/N5CCN(C)CC5)c(O)c4c3C2=O)NC(=O)/C(C)=C\C=C\[C@H](C)[C@H](O)[C@@H](C)[C@@H](O)[C@@H](C)[C@H](OC(C)=O)[C@@H]1C [Rifampin] | 0.25 (≈ 0.304 µM) | 8 (≈ 9.72 µM) | 4 (≈ 4.86 µM) | 0.03 (≈ 0.0365 µM) | 16 (≈ 19.4 µM) | 2 (≈ 2.43 µM) | 0.5 (≈ 0.608 µM) | – | 1 (≈ 1.22 µM) | 0.06 (≈ 0.0729 µM) | 8 (≈ 9.72 µM) | – | – | –
CN(C)[C@@H]1C(O)=C(C(N)=O)C(=O)[C@@]2(O)C(O)=C3C(=O)c4c(O)cccc4[C@@](C)(O)[C@H]3C[C@@H]12 [Tetracycline] | 0.004 (≈ 0.009 µM) | 2 (≈ 4.5 µM) | 0.125 (≈ 0.281 µM) | 0.06 (≈ 0.135 µM) | 2 (≈ 4.5 µM) | 0.125 (≈ 0.281 µM) | 0.031 (≈ 0.0698 µM) | 0.5 (≈ 1.13 µM) | 0.008 (≈ 0.018 µM) | 8 (≈ 18 µM) | > 8 | 2 (≈ 4.5 µM) | 0.125 (≈ 0.281 µM) | –
Gentamicin | – | – | – | – | – | – | – | – | – | – | – | – | – | MIC [1]: 8 µg/mL; MIC [2]: >64 µg/mL; MIC [3]: 4 µg/mL; MIC [4]: 2 µg/mL; MIC [5]: >64 µg/mL; MIC [6]: 4 µg/mL; MIC [7]: 4 µg/mL; MIC [9]: 8 µg/mL; MIC [11]: 16 µg/mL; MIC [12]: 128 µg/mL
